Test results as given in patent US20250154138A1, “Small Molecule IL-17A Modulators” (BeiGene, Ltd., priority 2022, published 2025).

How the values were obtained:
[1] = target: human IL-17A / human IL-17RA (Homo sapiens (Human), UniProt Q16552); assay: Human IL-17A biochemical assay (HTRF, blocking of IL-17A binding to IL-17RA); settings: 0.4 nM IL-17A, 0.3 nM IL-17RA, max compound concentration 10 uM
Outline: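 Compounds (10-point, 2.7-fold dilution from 10 uM) preincubated 3 h at RT with 0.4 nM human IL-17A, followed by 1 h with 0.3 nM IL-17RA and 1 h with Tb-cryptate/XL665 antibodies; buffer 20 mM HEPES pH 7.5, 0.1% BSA. Inhibition derived from HTRF fluorescence ratio; IC50 by four-parameter logistic fitting.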

[2] = system: IL-17-induced GROα secretion from HT-29 cells; assay: GROα release assay in human colorectal adenocarcinoma epithelial cell (HT-29, ELISA); format: cell-based; settings: Homo sapiens, HT-29, 48 h, 10 ng/mL IL-17A, highest concentration 10 μM, read-out: Cellular assay HT29 cell/CXCL1 IC50
Outline: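 IC50 values come from four-parameter fits of GROα levels, quantified by ELISA (450 nm, standard curve) in supernatants. Compounds, 4-fold serially diluted from 10 μM, were mixed 15 min with IL-17A (10 ng/mL final) before 48 h incubation with HT-29 cells at 37°C.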

Chain of human IL-17A / human IL-17RA (Q16552 24-155): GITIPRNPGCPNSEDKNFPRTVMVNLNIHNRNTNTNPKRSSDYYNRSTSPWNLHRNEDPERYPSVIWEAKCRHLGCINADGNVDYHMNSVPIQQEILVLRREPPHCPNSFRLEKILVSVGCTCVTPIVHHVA

CC(C)[C@@H]1CC(C2Cc3ccc(NC(=O)[C@@H](NC(=O)c4ccnn4C)C4CCCCC4)cc3C2)C(=O)N1 (stereo partly drawn) [Example 209, N-((1S)-1-cyclohexyl-2-((2-((5S)-5-isopropyl-2-oxopyrrolidin-3-yl)-2,3-dihydro-1H-inden-5-yl)amino)-2-oxoethyl)-1-methyl-1H-pyrazole-5-carboxamide]
IC50 [1]: 1060 nM | IC50 [2]: 2180 nM

CNC(=O)C1(N2CC(C(C)C(F)(F)F)NC2=O)Cc2ccc(NC(=O)[C@@H](NC(=O)c3ccnn3C)C3CCCCC3)cc2C1 (stereo partly drawn) [Example 81, N-((1S)-1-cyclohexyl-2-((2-(methylcarbamoyl)-2-(2-oxo-4-(1,1,1-trifluoropropan-2-yl)imidazolidin-1-yl)-2,3-dihydro-1H-inden-5-yl)amino)-2-oxoethyl)-1-methyl-1H-pyrazole-5-carboxamide]
IC50 [1]: 75 nM | IC50 [2]: 702 nM
